This is an account of results in US20080058352A1, “Fungicidal Mixtures” (priority 2004, published 2008).

For the assay, the system named is Pyrenophora teres. The experiment in a line: activity against net blotch of barley caused by Pyrenophora teres, 5 day protective application. In kind it is in vivo, Pyrenophora [syn. Drechslera] teres on barley seedlings. Particulars: individual active compound, untreated control 90% infection. As for the experimental part:
The active compounds, separately or jointly, were prepared as a stock solution comprising 25 mg of active compound which was made up to 10 ml using a mixture of acetone and/or DMSO and the emulsifier Uniperol® EL (wetting agent having an emulsifying and dispersing action based on ethoxylated alkylphenols) in a ratio by volume of solvent/emulsifier of 99:1. The mixture was then made up to 100 ml with water. This stock solution was diluted with the solvent/emulsifier/water mixture described to give the concentration of active compound stated below. Alternatively, the active compounds were employed as a commercial finished formulation and diluted with water to the stated concentration of active compound.
Use example—activity against net blotch of barley caused by Pyrenophora teres, 5 day protective application.
Leaves of potted barley seedlings were sprayed to runoff point with an aqueous suspension having the concentration of active compound stated below. 5 days after the application, the test plants were inoculated with an aqueous spore suspension of Pyrenophora [syn. Drechslera] teres, the net blotch pathogen. The test plants were then placed in a greenhouse at temperatures between 20 and 24° C. and 95 to 100% relative atmospheric humidity. After 6 days, the extent of the development of the disease was determined visually in % infection of the total leaf area.
The visually determined percentages of infected leaf areas were converted into efficacies in % of the untreated control:
The efficacy (E) is calculated as follows using Abbot's formula:
E=(1−α/β)·100 • α corresponds to the fungal infection of the treated plants in % and • β corresponds to the fungal infection of the untreated (control) plants in %
An efficacy of 0 means that the infection level of the treated plants corresponds to that of the untreated control plants; an efficacy of 100 means that the treated plants were not infected.
The expected efficacies of mixtures of active compounds were determined using Colby's formula (Colby, S. R. “Calculating synergistic and antagonistic responses of herbicide combinations”, Weeds, 15, 20-22, 1967) and compared with the observed efficacies.
E=x+y−x·y/100 • E expected efficacy, expressed in % of the untreated control, when the using the mixture of the active compounds A and B at the concentrations a and b • x efficacy, expressed in % of the untreated control, when using the active compound A at the concentration a • y efficacy, expressed in % of the untreated control, when using the active compound B at the concentration b

On to `CC(C)CC(C)c1sccc1NC(=O)c1cn(C)nc1C(F)(F)F` (stereo not drawn) [IIA.11, penthiopyrad], for which the “Efficacy in % of the untreated control” value is, setting by setting: (0.25 ppm in the spray liquor) 0%; (1 ppm in the spray liquor) 33%; (4 ppm in the spray liquor) 56%.

In the case of `CC1CCN(c2c(-c3c(F)cc(F)cc3F)c(Cl)nc3ncnn23)CC1` [I, 5-chloro-7-(4-methylpiperidin-1-yl)-6-(2,4,6-trifluorophenyl)[1,2,4]triazolo[1,5-a]pyrimidine], the “Efficacy in % of the untreated control” value is, setting by setting: (0.25 ppm in the spray liquor) 0%; (1 ppm in the spray liquor) 0%; (4 ppm in the spray liquor) 33%.
